Tested on: human colon cancer cell line (HCT116)
Assay: Example 4: THP-1-mediated phagocytic activity, anti-CAPRIN-1, anti-CD20 or anti-HER-2 antibody alone or with olaparib
Assay type: cell-based
Conditions: 1×10^4 HCT116 cocultured 1 hour with 1×10^5 THP-1, antibody final concentration 1 μg/mL (1 μM); for combination HCT116 cultured 2 days with olaparib 20 μM beforehand; N=3
Method: The human-derived cancer cell used was a colon cancer cell line HCT116.
Each cancer cell line after the culture was dissociated with TrypLE Express (Thermo), and the cancer cells were stained by the addition of calcein-AM at a final concentration of 0.04 μg/mL and incubation at 37° C. for 10 minutes. […] Further, dead cells were stained with propidium iodide (PI) (final concentration: 0.1 μg/mL), followed by the measurement of fluorescence from the cells by flow cytometry. PI-positive dead cells were excluded from analysis. The human monocytic cells THP-1 recognize an antibody bound onto cancer cells and phagocytize the cancer cells. At that time, if the cancer cells have been stained with calcein-AM, the monocytic cells ingesting the cancer cells by phagocytosis also become positive to calcein-AM. Thus, the phagocytic activity in this evaluation system was calculated as the ratio (%) of APC-positive/calcein-AM-positive cells to the whole calcein-AM-positive population.

anti-CD20 antibody: anti-CD20 antibody (“Rituxan”) purchased from Chugai Pharmaceutical Co., Ltd.
phagocytic activity against cancer cells: ≤ 7%

— patent US20260115285A1, “MEDICAMENT FOR TREATMENT AND/OR PREVENTION OF CANCER” (TORAY INDUSTRIES, INC., priority 2022, published 2026)
